Reference: patent publication US9351955B2, “Compounds and pharmaceutical compositions thereof for the treatment of cystic fibrosis” (Galapagos NV, priority 2013, dated 2016)

These molecules were tested against T1, CFTR ΔF508 mutant (Homo sapiens, UniProt P13569, DEL508-508) (assay: YFP-halide influx assay for the CFTR-ΔF508 mutation (384 well, CFBE41o- cells, FDSS/μCell)). Conditions: forskolin 10.67 μM, fluorescence after 36 seconds, read-out: EC50 measured by YFP-halide influx assay for the CFTR-ΔF508.
T1 construct: expressed in transfected cells; host or cells: CFBE41o- (adenoviral transduction)
T1 sequence (P13569 with tags, fused parts or gaps DEL508-508): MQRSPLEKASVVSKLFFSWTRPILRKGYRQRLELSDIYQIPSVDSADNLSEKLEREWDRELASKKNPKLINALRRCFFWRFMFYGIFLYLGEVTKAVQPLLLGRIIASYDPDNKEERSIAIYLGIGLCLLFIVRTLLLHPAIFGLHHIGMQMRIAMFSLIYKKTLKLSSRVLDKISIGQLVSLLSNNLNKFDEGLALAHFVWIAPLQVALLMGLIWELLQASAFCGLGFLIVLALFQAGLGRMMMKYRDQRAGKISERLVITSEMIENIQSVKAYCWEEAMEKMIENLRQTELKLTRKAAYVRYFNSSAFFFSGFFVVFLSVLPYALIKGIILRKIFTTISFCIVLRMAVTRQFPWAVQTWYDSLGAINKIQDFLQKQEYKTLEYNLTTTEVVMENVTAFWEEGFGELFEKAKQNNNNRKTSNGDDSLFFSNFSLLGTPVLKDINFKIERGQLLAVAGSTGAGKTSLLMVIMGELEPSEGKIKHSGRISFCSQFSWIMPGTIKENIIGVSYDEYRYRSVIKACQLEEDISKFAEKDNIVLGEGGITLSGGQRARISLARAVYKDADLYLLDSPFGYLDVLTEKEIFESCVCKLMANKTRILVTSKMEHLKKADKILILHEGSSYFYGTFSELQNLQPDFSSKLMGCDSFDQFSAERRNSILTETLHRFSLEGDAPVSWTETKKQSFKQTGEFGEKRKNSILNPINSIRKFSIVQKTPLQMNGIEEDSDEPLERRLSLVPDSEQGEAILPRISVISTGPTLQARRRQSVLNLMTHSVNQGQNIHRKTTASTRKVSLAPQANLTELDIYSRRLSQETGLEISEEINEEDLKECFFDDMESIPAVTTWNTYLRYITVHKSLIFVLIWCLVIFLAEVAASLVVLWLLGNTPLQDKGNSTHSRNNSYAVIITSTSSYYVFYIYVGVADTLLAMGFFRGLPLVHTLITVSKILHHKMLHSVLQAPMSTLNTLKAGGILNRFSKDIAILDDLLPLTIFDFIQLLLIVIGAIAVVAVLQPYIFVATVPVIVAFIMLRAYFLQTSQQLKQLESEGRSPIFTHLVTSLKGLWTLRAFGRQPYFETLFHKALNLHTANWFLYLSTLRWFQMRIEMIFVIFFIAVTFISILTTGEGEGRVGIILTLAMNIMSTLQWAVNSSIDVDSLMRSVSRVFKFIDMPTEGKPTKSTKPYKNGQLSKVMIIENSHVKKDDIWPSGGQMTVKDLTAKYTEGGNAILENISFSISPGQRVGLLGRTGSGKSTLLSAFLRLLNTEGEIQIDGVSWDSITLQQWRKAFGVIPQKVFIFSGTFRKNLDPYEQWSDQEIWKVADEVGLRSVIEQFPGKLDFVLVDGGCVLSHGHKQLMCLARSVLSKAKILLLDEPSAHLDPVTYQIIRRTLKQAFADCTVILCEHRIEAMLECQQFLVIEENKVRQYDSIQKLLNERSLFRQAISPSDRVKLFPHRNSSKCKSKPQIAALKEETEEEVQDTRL
Format: cell-based
Excerpt: 6.2. YFP-Halide Influx Assay for the CFTR-ΔF508 Mutation
The YFP halide influx assay measures the functionality of the cystic fibrosis Transmembrane Conductance regulator (CFTR) channels in the cystic fibrosis bronchial epithelium cell line CFBE41o-. The assay is used to evaluate the capacity of compounds to increase the open probability of existing CFTR channels in the membrane. It makes use of the observation that the yellow fluorescent protein (YFP) variant YFP H148Q, I152L has its fluorescence substantially quenched by halide ions like Cl— and I— (Galietta et al., 2001; Nagai et al., 2002).
For this purpose, CFBE410-cells are seeded in 384 well plates (3000 CFBE cells/well). One day after seeding, the CFBE cells are transduced with adenoviral vectors that direct the expression of the CFTR ΔF508 mutant and of the YFP reporter. Cells are incubated at 27° C., 5% CO2 for 24 hours so as to allow for the proper folding and migration to the membrane of the CFTR channel or treated with a CFTR modulator during 24 h at 37° C.
The I— induced quenching of fluorescence is recorded […] immediately after injection of I— for 2 min on an FDSS/μCell (Hamamatsu). The capacity of a compound to increase the channel opening is directly correlated with the decrease in fluorescence, and is expressed as (1−(fluorescence after 36 seconds (F)/fluorescence before injection (F0))) and an EC50 can be derived from a (1−F/F0) vs compound concentration plot.

EC50 [µM]	SMILES
0.495	CC1(C)Cc2c(sc(NC(=O)C3CC3F)c2C(N)=O)C(C)(C)O1 (single isomer, unassigned) [Compound 43, Cis-2-[[2-fluorocyclopropanecarbonyl]amino]-5,5,7,7-tetramethyl-4H-thieno[2,3-c]pyran-3-carboxamide]
0.276	CC1(C)Cc2c(sc(NC(=O)C3CC3F)c2C(N)=O)C(C)(C)O1 (single isomer, unassigned) [Compound 44, Cis-2-[[2-fluorocyclopropanecarbonyl]amino]-5,5,7,7-tetramethyl-4H-thieno[2,3-c]pyran-3-carboxamide]
0.145	COCC(C)(O)C(=O)Nc1sc2c(c1C(N)=O)CC(C)(C)OC2(C)C (single isomer, unassigned) [Compound 165, 2-[[2-hydroxy-3-methoxy-2-methyl-propanoyl]amino]-5,5,7,7-tetramethyl-4H-thieno[2,3-c]pyran-3-carboxamide]
0.116	COCC(C)(O)C(=O)Nc1sc2c(c1C(N)=O)CC(C)(C)OC2(C)C (single isomer, unassigned) [Compound 166]
0.00851	CCOc1cc(C(=O)Nc2sc3c(c2C(N)=O)CC(C)(C)OC3(C)C)n[nH]1 [Compound 54, 5-Ethoxy-1H-pyrazole-3-carboxylic acid (3-carbamoyl-5,5,7,7-tetramethyl-4,7-dihydro-5H-thieno[2,3-c]pyran-2-yl)-amide]
0.0793	CC(C)(O)CC(=O)Nc1sc2c(c1C(N)=O)CC(C)(C)OC2(C)C [Compound 56, 2-[(3-hydroxy-3-methyl-butanoyl)amino]-5,5,7,7-tetramethyl-4H-thieno[2,3-c]pyran-3-carboxamide]
0.178	CC(O)CC(=O)Nc1sc2c(c1C(N)=O)CC(C)(C)OC2(C)C (stereo not drawn) [Compound 58, 2-(3-hydroxybutanoylamino)-5,5,7,7-tetramethyl-4H-thieno[2,3-c]pyran-3-carboxamide]
0.644	CC1(C)Cc2c(sc(NC(=O)[C@H]3C[C@@H]3CO)c2C(N)=O)C(C)(C)O1 [Compound 83, 2-[[(1S,2S)-2-(hydroxymethyl)cyclopropanecarbonyl]amino]-5,5,7,7-tetramethyl-4H-thieno[2,3-c]pyran-3-carboxamide]
0.16	CCC(CO)C(=O)Nc1sc2c(c1C(N)=O)CC(C)(C)OC2(C)C (stereo not drawn) [Compound 86, 2-[2-(hydroxymethyl)butanoylamino]-5,5,7,7-tetramethyl-4H-thieno[2,3-c]pyran-3-carboxamide]
0.313	CC1(C)Cc2c(sc(NC(=O)C(CO)C(C)(C)C)c2C(N)=O)C(C)(C)O1 (stereo not drawn) [Compound 89, 2-[[2-(hydroxymethyl)-3,3-dimethyl-butanoyl]amino]-5,5,7,7-tetramethyl-4H-thieno[2,3-c]pyran-3-carboxamide]
0.0641	CC1(C)Cc2c(sc(NC(=O)C3(CO)CC3(C)C)c2C(N)=O)C(C)(C)O1 (stereo not drawn) [Compound 91, 2-[[1-(hydroxymethyl)-2,2-dimethyl-cyclopropanecarbonyl]amino]-5,5,7,7-tetramethyl-4H-thieno[2,3-c]pyran-3-carboxamide]
0.387	CC1(C)Cc2c(sc(NC(=O)C3CCC(=O)N3)c2C(N)=O)C(C)(C)O1 (stereo not drawn) [Compound 107, N-(3-carbamoyl-5,5,7,7-tetramethyl-4H-thieno[2,3-c]pyran-2-yl)-5-oxo-pyrrolidine-2-carboxamide]
0.303	Cn1ncc(C(=O)Nc2sc3c(c2C(N)=O)CC(C)(C)OC3(C)C)c1C(F)F [Compound 118, N-(3-carbamoyl-5,5,7,7-tetramethyl-4H-thieno[2,3-c]pyran-2-yl)-5-(difluoromethyl)-1-methyl-pyrazole-4-carboxamide]
0.168	Cc1csc(C(=O)Nc2sc3c(c2C(N)=O)CC(C)(C)OC3(C)C)n1 [Compound 131, N-(3-carbamoyl-5,5,7,7-tetramethyl-4H-thieno[2,3-c]pyran-2-yl)-4-methyl-thiazole-2-carboxamide]
0.0522	CC1(C)Cc2c(sc(NC(=O)c3cnccn3)c2C(N)=O)C(C)(C)O1 [Compound 138, N-(3-carbamoyl-5,5,7,7-tetramethyl-4H-thieno[2,3-c]pyran-2-yl)pyrazine-2-carboxamide]
